The NIST ThermoML archive (doi:10.1016/j.fluid.2013.07.002)
± gives the expanded uncertainty stated by the source.

Details: Crystal; visual observation

Normal melting temperature: 58 ± 0.39 °C
SMILES: CCCCCCCCCCCCCCCCCCO [1-octadecanol]
